Calls of active or inactive are those of the source. The calls are words filed in the database; no cut-off is given here.
Legend:
U373 MG [1] = assay: Growth inhibition of empty vector transfected human U373 cells after 7 days by MTT assay; assay type: functional, U-373MG ATCC; settings: 168 h
SNB-19 [2] = assay: Growth inhibition of MGMT-transfected human SNB19 cells after 7 days by MTT assay; assay type: functional; settings: SNB-19, 168 h
U373 MG [3] = assay: Growth inhibition of MGMT-transfected human U373 cells after 7 days by MTT assay; assay type: functional, U-373MG ATCC; settings: 168 h
SNB-19 [4] = assay: Growth inhibition of empty vector transfected human SNB19 cells after 7 days by MTT assay; assay type: functional; settings: SNB-19, 168 h
DLD-1 [5] = assay: Growth inhibition of human DLD1 cells harboring hMSH6 mutation; assay type: functional
HCT-116 [6] = assay: Growth inhibition of human HCT116 cells harboring hMLH1 mutation; assay type: functional
[7] = Growth inhibition of human SNB19VR cells by MTT assay; assay type: functional
SNB-19 [8] = assay: Ratio of GI50 for MGMT-transfected human SNB19 cells to GI50 for empty vector transfected human SNB19 cells; assay type: functional
U373 MG [9] = assay: Ratio of GI50 for MGMT-transfected human U373 cells to GI50 for empty vector transfected human U373 cells; assay type: functional, U-373MG ATCC
[10] = Growth inhibition of human U373VR cells by MTT assay; assay type: functional
DNA [11] = assay: Induction of Escherichia coli pBR322 DNA interstrand cross linking using 5'-end labeled [gamma32P]ATP primer at <=1000 uM after 2 to 40 hrs by PAGE based autoradiographic method; assay type: nucleic-acid assay
[12] = tested on: Panel NCI-60 (60 carcinoma cell lines); assay: Growth inhibition of human NCI60 cells after 48 hrs by MTT assay; assay type: functional
SNB-19 [13] = assay: Potency index, ratio of temozolomide GI50 to compound GI50 for empty vector transfected human SNB19 cells; assay type: functional
U373 MG [14] = assay: Potency index, ratio of temozolomide GI50 to compound GI50 for MGMT-transfected human U373 cells; assay type: functional, U-373MG ATCC
U373 MG [15] = assay: Potency index, ratio of temozolomide GI50 to compound GI50 for empty vector transfected human U373 cells; assay type: functional, U-373MG ATCC
SNB-19 [16] = assay: Potency index, ratio of temozolomide GI50 to compound GI50 for MGMT-transfected human SNB19 cells; assay type: functional
dsDNA [17] = assay: Induction of double stranded DNA break in MGMT-transfected human U373 cells assessed as increase in gamma-H2AX level at 100 uM after 72 hrs by flow cytometry relative to control; assay type: cell-based
dsDNA [18] = assay: Induction of double stranded DNA break in MGMT-transfected human U373 cells assessed as increase in gamma-H2AX level at 100 uM after 72 hrs by flow cytometry; assay type: cell-based
HCT-116 [19] = assay: Growth inhibition of human HCT116 cells harboring hMLH1 mutation relative to temozolomide; assay type: functional
DNA [20] = assay: Induction of Escherichia coli pBR322 DNA cleavage assessed as covalent modification at N-7 guanine at 10 to 1000 uM after 2 hrs by PAGE based autoradiographic method; assay type: nucleic-acid assay
DLD-1 [21] = assay: Growth inhibition of human DLD1 cells harboring hMSH6 mutation relative to temozolomide; assay type: functional
Escherichia coli = assay: Induction of Escherichia coli linearized pBR322 DNA alkylation at clusters of 3/5 guanines using 5'-end labeled [gamma32P]ATP primer after 2 hrs by PAGE based taq polymerase stop assay

Row | Compound | GI50 (U373 MG [1]) | GI50 (SNB-19 [2]) | GI50 (U373 MG [3]) | GI50 (SNB-19 [4]) | also measured
1 | CNC(=O)Cn1nnc2c(C(N)=O)ncn2c1=O | 260 µM | 246 µM | 263 µM | 65.8 µM | 
2 | NC(=O)c1nc[nH]c1N/N=N/CC(F)F | 205 µM | 70.3 µM | 248 µM | 68.8 µM | 
3 | NC(=O)CCn1nnc2c(C(N)=O)ncn2c1=O | 138 µM | 398 µM | 355 µM | 321 µM | 
4 | CCOC(=O)C=[N+]=[N-] | > 800 µM | > 800 µM | > 800 µM | > 800 µM | 
5 | NC(=O)c1ncn2c(=O)n(CCC(=O)O)nnc12 | > 250 µM | > 250 µM | > 250 µM | > 250 µM | 
6 | NC(=O)c1nc[nH]c1N/N=N/CCO | 383 µM | > 500 µM | 336 µM | 441 µM | 
7 | CC#CCn1nnc2c(C(N)=O)ncn2c1=O | 36.5 µM | 37.6 µM | 33 µM | 39.6 µM | 
8 | NC(=O)Cn1nnc2c(C(N)=O)ncn2c1=O | 65.4 µM | 95.3 µM | 72.3 µM | 38 µM | 
9 | Cn1nnc2c(C(N)=O)ncn2c1=O [TEMOZOLOMIDE] | 72.9 µM | 526 µM | 395 µM | 45.6 µM | GI50 (DLD-1 [5]): > 500 µM; GI50 (HCT-116 [6]): > 500 µM; GI50 [7]: 280 µM; RatioGI50 (SNB-19 [8]): 11; RatioGI50 (U373 MG [9]): 5; GI50 [10]: 289 µM; Activity (DNA [11]): inactive; GI50 [12]: > 100 µM
10 | NC(=O)c1ncn2c(=O)n(CC(=O)N3CCOCC3)nnc12 | 243 µM | 102 µM | 132 µM | 62.3 µM | 
11 | CC(C)(C)C(=O)OCn1nnc2c(C(N)=O)ncn2c1=O | 13.2 µM | 28 µM | 28.9 µM | 45 µM | 
12 | NC(=O)c1ncn2c(=O)n(CC(=O)O)nnc12 | 69.5 µM | 296 µM | 140 µM | 265 µM | 
13 | NC(=O)c1ncn2c(=O)n(CO)nnc12 |  | 42.1 µM |  | 46.2 µM | 
14 | NC(=O)c1nc[nH]c1N/N=N/C1CC1 | > 500 µM | > 500 µM | > 500 µM | > 500 µM | 
15 | CN(C)C(=O)Cn1nnc2c(C(N)=O)ncn2c1=O | 85.1 µM | 73.4 µM | 92.5 µM | 67.7 µM | 
16 | CCOC(=O)Cn1nnc2c(C(N)=O)ncn2c1=O | 63.2 µM | 61.1 µM | 55.6 µM | 52.4 µM | 
17 | CSCn1nnc2c(C(N)=O)ncn2c1=O | 59 µM | 151 µM | 56.5 µM | 107 µM | 
18 | N#CC/N=N/Nc1[nH]cnc1C(N)=O | 106 µM | 271 µM | 242 µM | 111 µM | 
19 | COC(=O)Cn1nnc2c(C(N)=O)ncn2c1=O | 32.1 µM | 49 µM | 46.4 µM | 47.5 µM | 
20 | NC(=O)c1ncn2c(=O)n(C3CC3)nnc12 | 306 µM | > 500 µM | 360 µM | 428 µM | 

Row | Compound | GI50 (U373 MG [1]) | GI50 (SNB-19 [2]) | GI50 (U373 MG [3]) | GI50 (SNB-19 [4]) | also measured
21 | CC(=O)OCn1nnc2c(C(N)=O)ncn2c1=O | 11.8 µM | 40.4 µM | 39.4 µM | 48.3 µM | 
22 | CCOC(=O)C/N=N/Nc1[nH]cnc1C(N)=O | 30.3 µM | 37.4 µM | 23.4 µM | 33.6 µM | 
23 | NC(=O)c1ncn2c(=O)n(CCl)nnc12 | 29.3 µM | 31 µM | 24.4 µM | 34.6 µM | 
24 | COCn1nnc2c(C(N)=O)ncn2c1=O | 26 µM | 37.9 µM | 33.1 µM | 30.8 µM | 
25 | NC(=O)c1ncn2c(=O)n(CCCl)nnc12 [MITOZOLOMIDE] | 22 µM | 68.4 µM | 40.3 µM | 10 µM | RatioGI50 (SNB-19 [13]): >3; RatioGI50 (U373 MG [14]): 10; RatioGI50 (SNB-19 [8]): >2; RatioGI50 (U373 MG [9]): >2; RatioGI50 (U373 MG [15]): >3; RatioGI50 (SNB-19 [16]): 10
26 | NC(=O)c1nc[nH]c1N/N=N/CC(F)(F)F | 209 µM | 131 µM | 423 µM | 68.8 µM | 
27 | NC(=O)c1ncn2c(=O)n(CCO)nnc12 | 288 µM | 417 µM | 322 µM | 204 µM | 
28 | NC(=O)c1nc[nH]c1N/N=N/CC1CC1 | > 500 µM | > 500 µM | > 500 µM | > 500 µM | 
29 | C#CCn1nnc2c(C(N)=O)ncn2c1=O | 37.6 µM | 37.8 µM | 36.1 µM | 35.6 µM | fold change (FC) (dsDNA [17]): > 2; GI50 [7]: < 50 µM; Activity (dsDNA [18]): Active; GI50 [10]: < 50 µM; Activity (DNA [11]): inactive; fold change (FC) (HCT-116 [19]): >10; Activity (DNA [20]): Active; fold change (FC) (DLD-1 [21]): >10; Activity (Escherichia coli): Dose-dependent effect
30 | NC(=O)c1ncn2c(=O)n(COCc3ccccc3)nnc12 | 16.5 µM | 48.5 µM | 28.8 µM | 52.2 µM | 
31 | COC(=O)C/N=N/Nc1[nH]cnc1C(N)=O | 32.6 µM | 49.7 µM | 46.4 µM | 47.7 µM | 
32 | C#CC/N=N/Nc1[nH]cnc1C(N)=O | 32 µM | 33.9 µM | 35.6 µM | 39.1 µM | fold change (FC) (dsDNA [17]): > 2; Activity (dsDNA [18]): Active; Activity (DNA [20]): Active; Activity (Escherichia coli): Dose-dependent effect
33 | C[S+]([O-])Cn1nnc2c(C(N)=O)ncn2c1=O (stereo unspecified) | 13.7 µM | 20.1 µM | 14.4 µM | 26.8 µM | 
34 | CCOC(=O)CCn1nnc2c(C(N)=O)ncn2c1=O | 129 µM | 255 µM | 143 µM | 367 µM | 
35 | CS(=O)(=O)Cn1nnc2c(C(N)=O)ncn2c1=O | 20.2 µM | 18.3 µM | 7.5 µM | 13.8 µM | 
36 | C[Si](C)(C)C#CCn1nnc2c(C(N)=O)ncn2c1=O | 30.3 µM | 39.5 µM | 30.7 µM | 39.1 µM | 
37 | C=CCn1nnc2c(C(N)=O)ncn2c1=O | 141 µM | 239 µM | 199 µM | 258 µM | 
38 | COCC/N=N/Nc1[nH]cnc1C(N)=O | > 500 µM | > 500 µM | > 500 µM | > 500 µM | 
39 | NC(=O)c1ncn2c(=O)n(CC3CC3)nnc12 | 386 µM | 223 µM | 149 µM | 286 µM | 

— ChEMBL document CHEMBL4190174 (2016)
